Laboratory results reported in patent US10206901B2, “Method and composition for acute treatment of seizures” (JC Pharma, Inc., priority 2016, dated 2019).

Experiments:
convulsive seizures = experiment: Acute intranasal treatment of convulsive seizures in pediatric human subjects; type: in vivo; details: human subjects weighing over 60 lbs
Experimental: Three male human pediatric subjects, each under the age of 16, undergoing convulsive seizures, were administered from two to four 0.1 ml doses (each dose 5 mg delta-9-tetrahydrocannabinol with 8% by volume linalool) of the product disclosed herein. Administration was achieved via a nasal spray administered within one or more of the subject's nostrils using the delivery device disclosed herein by a caregiver during the occurrence of the convulsive seizure. In subject one, administered 3 doses, a visible state of cessation of the convulsions of the seizure was achieved by 21 seconds from first dose administration. In subject two, administered 4 doses, a visible state of cessation of the convulsions of the seizure was achieved by 36 seconds from first dose administration. In subject three, administered 2 doses, a visible state of cessation of the convulsions of the seizure was achieved by 27 seconds from first dose administration.
Thus, acute treatment of the convulsive seizure using an average dose of 3×0.1 ml of the 5 mg delta-9-tetrahydrocannabinol with 8% by volume linalool achieved cessation of the convulsion symptom of the convulsive seizure within a mean time of 28 seconds from first dose administration.

rat model of epilepsy = details: intraperitoneal injection, cited from earlier work

CCCCCc1cc(O)c2c(c1)OC(C)(C)[C@@H]1CCC(C)=C[C@@H]21 [THC, delta-9-tetrahydrocannabinol]
lowest administered THC dose per body weight at which seizures in progress were stopped (convulsive seizures): around 0.37 mg/kg
lowest total administered THC dose at which seizures in progress were treated and stopped (convulsive seizures): 10.0 mg
seizure prevention (rat model of epilepsy; 30.0 mg/kg): can prevent seizures from occurring
ED50 anticonvulsant effect (seizure prevention) (rat model of epilepsy): 15.0 mg/kg
dose at which anticonvulsant effect starts (rat model of epilepsy): 5.0 mg/kg
